Assay results from PubChem BioAssay AID1963860 (Molecular Pharmacology Branch, DTP, NCI, 2024).

Test system: CN0375-F725-PDC KRAS spheroid viability
Assay: Anticancer human tumor CN0375-F725-PDC patient-derived colon carcinoma cell line growth inhibition [KRAS2]
Conditions: spheroids with HUVEC and MSC; for IC50: curve of first compound; for viability, T/C: stronger effect = lower value
Outline: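 KRAS-mutant tumor cells were grown as spheroids with HUVEC endothelial cells and human MSCs as stroma. Targeted agents were tested alone and with KRAS pathway inhibitors. Doses started at or near clinical Cmax, or 10 microM, descending half-log.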
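Also: spheroids exposed to agents for 7 days.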

Question: Which results are given for `Cn1nccc1Nc1nccc(-c2cc3c(s2)C(C)(C)N(CCN2CCOCC2)C3=O)n1` + C=CC(=O)N1CCN(c2nc(OCC3CCCN3C)nc3c2CCN(c2cccc4cccc(C)c24)C3)CC1CC#N?
Answer: IC50 (second compound 0.0316 µM): 3930 nM; IC50 (second compound 0.1 µM): 2980 nM; IC50 (second compound 0.316 µM): 2230 nM; IC50 (second compound 1 µM): 739 nM; IC50 (second compound 3.16 µM): < 31.6 nM; viability, T/C (second compound 0.0316 µM, first compound 0.0316 µM): 100%; viability, T/C (second compound 0.0316 µM, first compound 0.1 µM): 97.3%; viability, T/C (second compound 0.0316 µM, first compound 0.316 µM): 76.9%; viability, T/C (second compound 0.0316 µM, first compound 1 µM): 68.9%; viability, T/C (second compound 0.0316 µM, first compound 3.16 µM): 52.7%; viability, T/C (second compound 0.0316 µM, first compound 10 µM): 39%; viability, T/C (second compound 0.1 µM, first compound 0.0316 µM): 95.7%; viability, T/C (second compound 0.1 µM, first compound 0.1 µM): 93.4%; viability, T/C (second compound 0.1 µM, first compound 0.316 µM): 77.2%; viability, T/C (second compound 0.1 µM, first compound 1 µM): 63.4%; viability, T/C (second compound 0.1 µM, first compound 3.16 µM): 50.4%; viability, T/C (second compound 0.1 µM, first compound 10 µM): 39.7%; viability, T/C (second compound 0.316 µM, first compound 0.0316 µM): 91.5%; viability, T/C (second compound 0.316 µM, first compound 0.1 µM): 91.3%; viability, T/C (second compound 0.316 µM, first compound 0.316 µM): 70.3%; viability, T/C (second compound 0.316 µM, first compound 1 µM): 60.3%; viability, T/C (second compound 0.316 µM, first compound 3.16 µM): 46.9%; viability, T/C (second compound 0.316 µM, first compound 10 µM): 38%; viability, T/C (second compound 1 µM, first compound 0.0316 µM): 87.6%; viability, T/C (second compound 1 µM, first compound 0.1 µM): 82.8%; viability, T/C (second compound 1 µM, first compound 0.316 µM): 52.4%; viability, T/C (second compound 1 µM, first compound 1 µM): 47%; viability, T/C (second compound 1 µM, first compound 3.16 µM): 39.1%; viability, T/C (second compound 1 µM, first compound 10 µM): 23.1%; viability, T/C (second compound 3.16 µM, first compound 0.0316 µM): 27.7%; viability, T/C (second compound 3.16 µM, first compound 0.1 µM): 24.3%; viability, T/C (second compound 3.16 µM, first compound 0.316 µM): 11.9%; viability, T/C (second compound 3.16 µM, first compound 1 µM): 7.82%; viability, T/C (second compound 3.16 µM, first compound 3.16 µM): 5.81%; viability, T/C (second compound 3.16 µM, first compound 10 µM): 2.15%
